In patent publication US8097654B2, “Radiolabeled 3-[3-(benzoyl-amido)benzyloxy]aspartic acid derivative and method of producing the same” (Suntory Holdings Limited, priority 2004, dated 2012):
One block for each molecule: values may come before it.

Assays:
EAAT2 = EAAT2 (Homo sapiens, UniProt P43004); assay: Inhibition of [14C]-glutamic acid uptake by EAAT2 expressed in MDCK or COS-1 cells; format: cell-based; set-up: expressed in transfected cells; conditions: 1 μM L-[14C]-glutamic acid, 12 minutes
Description: (§1) In accordance with a known method (Shimamoto, K. et al., Mol. Pharmacol. 53, 195-201, 1998; Bioorg. Med. Chem. Lett. 10, 2407-2410, 2000), the inhibitory activity was assayed as the ability to inhibit the uptake of [^14C]-glutamic acid by human EAAT2 and EAAT3 stably expressed in MDCK (Madin-Darby canine kidney) cells or transiently expressed in COS-1 cells. The glutamate uptake activity was assayed by incubating a mixture of 1 μM of L-[^14C]-glutamic acid with a sample compound at a predetermined concentration for 12 minutes, lysing the cells and then measuring the radioactivity incorporated into the cells with a liquid scintillator. The amount of uptake was expressed in percentage by referring the amount of uptake in the absence of a test compound (i.e., the buffer alone) as 100% and referring the amount of uptake in a sodium-free solution as 0%.

human EAAT3 = target: T1, human EAAT3 (Homo sapiens, UniProt P43005); assay: Inhibition of [14C]-glutamic acid uptake by EAAT3 expressed in MDCK or COS-1 cells; format: cell-based; conditions: 1 μM L-[14C]-glutamic acid, 12 minutes
T1 construct: expressed in transfected cells
T1 sequence (P43005 1-524): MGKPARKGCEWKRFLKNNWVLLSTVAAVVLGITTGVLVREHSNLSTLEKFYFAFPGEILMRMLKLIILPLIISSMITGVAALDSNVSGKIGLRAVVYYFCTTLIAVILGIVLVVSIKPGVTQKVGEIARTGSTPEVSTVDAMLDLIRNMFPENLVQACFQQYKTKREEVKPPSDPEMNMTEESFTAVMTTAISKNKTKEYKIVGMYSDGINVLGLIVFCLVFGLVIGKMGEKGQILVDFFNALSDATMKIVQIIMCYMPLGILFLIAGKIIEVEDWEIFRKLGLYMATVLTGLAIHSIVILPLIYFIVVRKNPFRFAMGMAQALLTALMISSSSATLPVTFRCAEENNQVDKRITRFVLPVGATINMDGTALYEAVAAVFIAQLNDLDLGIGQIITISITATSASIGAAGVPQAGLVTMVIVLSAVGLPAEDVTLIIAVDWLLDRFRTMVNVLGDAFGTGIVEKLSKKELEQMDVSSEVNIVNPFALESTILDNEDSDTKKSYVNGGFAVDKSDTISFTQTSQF
Description: as §1

[1] = Biodistribution of radioactivity after intravenous injection in mice; conditions: mean ± S.D.
[2] = Octanol-water partition coefficient (Log P); format: physicochemical; conditions: octanol/phosphate buffer, mean ± S.D.
Description: Equal amounts of octanol and a phosphate buffer were mixed together and [^125I]I-BzA-TBOA was added thereto. After repeatedly shaking for 1 minute and allowing to stand for 1 minute three times, the mixture was allowed to stand for 20 minutes. After repeating this procedure three times, it was centrifuged (1,000×g, 10 min, 4° C.) and the radioactivity of each layer was measured. Thus, the partition coefficient was calculated (Table 1).

[3] = 2 min after i.v. administration
[4] = 5 min after i.v. administration
[5] = 15 min after i.v. administration
[6] = 30 min after i.v. administration

Chain of EAAT2 (P43004 whole entry): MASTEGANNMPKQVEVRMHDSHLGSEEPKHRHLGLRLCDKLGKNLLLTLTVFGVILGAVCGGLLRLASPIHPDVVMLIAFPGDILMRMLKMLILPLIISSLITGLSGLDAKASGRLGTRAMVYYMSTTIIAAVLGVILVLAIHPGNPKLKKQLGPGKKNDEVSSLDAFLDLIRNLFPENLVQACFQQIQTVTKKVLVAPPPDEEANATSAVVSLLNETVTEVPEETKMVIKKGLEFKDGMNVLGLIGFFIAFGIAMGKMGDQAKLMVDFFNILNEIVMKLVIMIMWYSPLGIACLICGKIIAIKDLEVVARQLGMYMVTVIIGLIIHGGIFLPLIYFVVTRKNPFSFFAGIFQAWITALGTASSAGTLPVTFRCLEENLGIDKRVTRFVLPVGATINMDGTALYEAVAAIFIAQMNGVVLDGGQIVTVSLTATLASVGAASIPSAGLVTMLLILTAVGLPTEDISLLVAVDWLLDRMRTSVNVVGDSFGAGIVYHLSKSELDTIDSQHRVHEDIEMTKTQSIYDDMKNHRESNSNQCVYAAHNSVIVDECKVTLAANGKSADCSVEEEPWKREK

IC50 (EAAT2): 1.9 ± 0.1 nM | IC50 (human EAAT3): 28 ± 1.8 nM
Compound: N[C@H](C(=O)O)[C@H](OCc1cccc(NC(=O)c2ccc(C(F)(F)F)cc2)c1)C(=O)O [TFB-TBOA, reference compound]

Octanol/water partition coefficient (Log P) ([2]; PH 3.0): 0.641 ± 0.006 | Octanol/water partition coefficient (Log P) ([2]; PH 7.0): −0.821 ± 0.003 | Octanol/water partition coefficient (Log P) ([2]; PH 7.4): −0.849 ± 0.006 | Octanol/water partition coefficient (Log P) ([2]; PH 8.0): −0.936 ± 0.007
Compound: N[C@H](C(=O)O)[C@H](OCc1cccc(NC(=O)c2ccc([125I])cc2)c1)C(=O)O [[^125I]I-BzA-TBOA, (2S,3S)-3-[3-(4-[^125I]iodobenzoylamino)benzyloxy]aspartic acid]
Radioactivity in Blood [1, 3]: 2.29 ± 0.23 percentage of injection dose per gram of each tissue | Radioactivity in Blood [1, 4]: 1.58 ± 0.25 percentage of injection dose per gram of each tissue | Radioactivity in Blood [1, 5]: 0.67 ± 0.19 percentage of injection dose per gram of each tissue | Radioactivity in Blood [1, 6]: 0.40 ± 0.12 percentage of injection dose per gram of each tissue | Radioactivity in Blood ([1]; 1 hr after i.v. administration): 0.16 ± 0.04 percentage of injection dose per gram of each tissue | Radioactivity in Blood ([1]; 2 hr after i.v. administration): 0.07 ± 0.01 percentage of injection dose per gram of each tissue | Radioactivity in Brain [1, 3]: 0.21 ± 0.09 percentage of injection dose per gram of each tissue | Radioactivity in Brain [1, 4]: 0.19 ± 0.18 percentage of injection dose per gram of each tissue | Radioactivity in Brain [1, 5]: 0.06 ± 0.09 percentage of injection dose per gram of each tissue | Radioactivity in Brain [1, 6]: 0.10 ± 0.13 percentage of injection dose per gram of each tissue | Radioactivity in Brain ([1]; 1 hr after i.v. administration): 0.01 ± 0.02 percentage of injection dose per gram of each tissue | Radioactivity in Brain ([1]; 2 hr after i.v. administration): 0.18 ± 0.23 percentage of injection dose per gram of each tissue | Radioactivity in Heart [1, 3]: 0.93 ± 0.06 percentage of injection dose per gram of each tissue | Radioactivity in Heart [1, 4]: 0.64 ± 0.13 percentage of injection dose per gram of each tissue | Radioactivity in Heart [1, 5]: 0.33 ± 0.04 percentage of injection dose per gram of each tissue | Radioactivity in Heart [1, 6]: 0.19 ± 0.14 percentage of injection dose per gram of each tissue | Radioactivity in Heart ([1]; 1 hr after i.v. administration): 0.04 ± 0.02 percentage of injection dose per gram of each tissue | Radioactivity in Heart ([1]; 2 hr after i.v. administration): 0.00 ± 0.00 percentage of injection dose per gram of each tissue | Radioactivity in Intestine [1, 3]: 1.76 ± 0.15 percentage of injection dose per gram of each tissue | Radioactivity in Intestine [1, 4]: 4.51 ± 1.36 percentage of injection dose per gram of each tissue | Radioactivity in Intestine [1, 5]: 12.28 ± 0.72 percentage of injection dose per gram of each tissue | Radioactivity in Intestine [1, 6]: 15.91 ± 1.65 percentage of injection dose per gram of each tissue | Radioactivity in Intestine ([1]; 1 hr after i.v. administration): 20.05 ± 6.29 percentage of injection dose per gram of each tissue | Radioactivity in Intestine ([1]; 2 hr after i.v. administration): 23.69 ± 1.58 percentage of injection dose per gram of each tissue | Radioactivity in Kidney [1, 3]: 15.17 ± 2.34 percentage of injection dose per gram of each tissue | Radioactivity in Kidney [1, 4]: 16.02 ± 0.57 percentage of injection dose per gram of each tissue | Radioactivity in Kidney [1, 5]: 14.47 ± 2.59 percentage of injection dose per gram of each tissue | Radioactivity in Kidney [1, 6]: 8.29 ± 2.63 percentage of injection dose per gram of each tissue | Radioactivity in Kidney ([1]; 1 hr after i.v. administration): 2.08 ± 0.15 percentage of injection dose per gram of each tissue | Radioactivity in Kidney ([1]; 2 hr after i.v. administration): 1.03 ± 0.23 percentage of injection dose per gram of each tissue | Radioactivity in Liver [1, 3]: 28.71 ± 1.97 percentage of injection dose per gram of each tissue | Radioactivity in Liver [1, 4]: 22.52 ± 4.43 percentage of injection dose per gram of each tissue | Radioactivity in Liver [1, 5]: 11.11 ± 0.24 percentage of injection dose per gram of each tissue | Radioactivity in Liver [1, 6]: 4.96 ± 1.65 percentage of injection dose per gram of each tissue | Radioactivity in Liver ([1]; 1 hr after i.v. administration): 1.95 ± 0.46 percentage of injection dose per gram of each tissue | Radioactivity in Liver ([1]; 2 hr after i.v. administration): 1.50 ± 0.43 percentage of injection dose per gram of each tissue | Radioactivity in Lung [1, 3]: 3.11 ± 0.22 percentage of injection dose per gram of each tissue | Radioactivity in Lung [1, 4]: 2.44 ± 0.59 percentage of injection dose per gram of each tissue | Radioactivity in Lung [1, 5]: 1.39 ± 0.12 percentage of injection dose per gram of each tissue | Radioactivity in Lung [1, 6]: 0.64 ± 0.42 percentage of injection dose per gram of each tissue | Radioactivity in Lung ([1]; 1 hr after i.v. administration): 0.26 ± 0.06 percentage of injection dose per gram of each tissue | Radioactivity in Lung ([1]; 2 hr after i.v. administration): 0.10 ± 0.02 percentage of injection dose per gram of each tissue | Radioactivity in Pancreas [1, 3]: 2.10 ± 0.24 percentage of injection dose per gram of each tissue | Radioactivity in Pancreas [1, 4]: 2.13 ± 0.26 percentage of injection dose per gram of each tissue | Radioactivity in Pancreas [1, 5]: 0.94 ± 0.02 percentage of injection dose per gram of each tissue | Radioactivity in Pancreas [1, 6]: 0.33 ± 0.23 percentage of injection dose per gram of each tissue | Radioactivity in Pancreas ([1]; 1 hr after i.v. administration): 0.10 ± 0.06 percentage of injection dose per gram of each tissue | Radioactivity in Pancreas ([1]; 2 hr after i.v. administration): 0.06 ± 0.04 percentage of injection dose per gram of each tissue | Radioactivity in Spleen [1, 3]: 1.11 ± 0.12 percentage of injection dose per gram of each tissue | Radioactivity in Spleen [1, 4]: 0.65 ± 0.12 percentage of injection dose per gram of each tissue | Radioactivity in Spleen [1, 5]: 0.30 ± 0.04 percentage of injection dose per gram of each tissue | Radioactivity in Spleen [1, 6]: 0.11 ± 0.07 percentage of injection dose per gram of each tissue | Radioactivity in Spleen ([1]; 1 hr after i.v. administration): 0.03 ± 0.04 percentage of injection dose per gram of each tissue | Radioactivity in Spleen ([1]; 2 hr after i.v. administration): 0.03 ± 0.03 percentage of injection dose per gram of each tissue | Radioactivity in Stomach [1, 3]: 1.12 ± 0.20 percentage of injection dose per gram of each tissue | Radioactivity in Stomach [1, 4]: 0.78 ± 0.22 percentage of injection dose per gram of each tissue | Radioactivity in Stomach [1, 5]: 0.88 ± 0.13 percentage of injection dose per gram of each tissue | Radioactivity in Stomach [1, 6]: 0.58 ± 0.40 percentage of injection dose per gram of each tissue | Radioactivity in Stomach ([1]; 1 hr after i.v. administration): 0.74 ± 0.80 percentage of injection dose per gram of each tissue | Radioactivity in Stomach ([1]; 2 hr after i.v. administration): 0.48 ± 0.19 percentage of injection dose per gram of each tissue
